Among the test systems are Malme-3M; NCI-H460; OVCAR-3; SF-268; COLO 205; HOP-92; UO-31; NCI-H23; OVCAR-5; M14; ACHN; HL-60; SF-295; Hs-578T; SNB-75; MDA-MB-231; HCC 2998; EKVX; K562; SR.
Holding throughout (assay): NCI tumour cell line growth inhibition, 48 h

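Tested at 5 concentrations; 48 h exposure; 96-well plates; endpoints linearly interpolated, else capped at highest concentration. Here, GI50 denotes the concentration required for 50% inhibition of growth.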 Activity calls are given as the source filed them. Rule as the data show it: active = GI50 up to about 1.1 µM and inactive = higher.

Take `CCOC(=O)/C=C(\C(=O)OCC)n1cc(Cl)c(=O)n(CC(=O)OCC)c1=O`: the GI50 in the test with Malme-3M was 1.57 µM (inactive); with NCI-H460, 23.4 µM (inactive); in the test on OVCAR-3 it was 2.82 µM (inactive); in the test on SF-268, 17.7 µM (inactive); in the test on COLO 205, 0.697 µM (active); in the test on HOP-92, 1.85 µM (inactive). The GI50 was 1.87 µM (inactive) in the test with UO-31; 14.7 µM (inactive) in the test with NCI-H23; 18.1 µM (inactive) in the test with OVCAR-5; 3.4 µM (inactive) in the test on M14; 1.63 µM (inactive) in the test on ACHN; 2.81 µM (inactive) with HL-60. In addition, the GI50 in the test with SF-295 is > 43.5 µM (inactive); in the test on Hs-578T, 23.7 µM (inactive); in the test with SNB-75 it was 18.7 µM (inactive); in the test on MDA-MB-231 it was 16 µM (inactive); in the test with HCC 2998, 21.1 µM (inactive); in the test on EKVX, 14.3 µM (inactive).
As for `Cc1ccc(C)c2c1CC(Cc1ccccc1C(=O)O)C2=O` (configuration not stated), the GI50 with Malme-3M, with NCI-H460, in the test with OVCAR-3, in the test with SF-268, in the test with COLO 205 and in the test with HOP-92 was > 100 µM (inactive) in each case. For the same molecule, the GI50 in the test with K562, in the test with UO-31, with NCI-H23, in the test on OVCAR-5, in the test with M14 and with ACHN was > 100 µM (inactive) in each case. Further, the GI50 with HL-60, with SF-295, in the test with Hs-578T, in the test with SNB-75, in the test with MDA-MB-231 and in the test on HCC 2998 was > 100 µM (inactive) throughout. Also, in the test with EKVX, the GI50 was > 100 µM (inactive).
Consider `COc1ccc(OC/C(N)=N/NC(=O)c2ccncc2)cc1`, for which the GI50 in the test with Malme-3M, in the test with NCI-H460, in the test on OVCAR-3, in the test on SF-268, with COLO 205 and in the test on HOP-92 was > 100 µM (inactive) each time. The GI50 in the test on K562, with NCI-H23, in the test with OVCAR-5, with M14, in the test with ACHN and with HL-60 was > 100 µM (inactive) each time. Also, the GI50 in the test on SF-295 was > 100 µM (inactive); with Hs-578T it was > 100 µM (inactive); in the test with SNB-75, 8.22 µM (inactive); with MDA-MB-231 it was > 100 µM (inactive); with HCC 2998 it was > 100 µM (inactive); in the test with EKVX, > 100 µM (inactive).
Consider `COC(=O)c1ccccc1C1CN=NC12Cc1cc(C)c(C)cc1C2=O` (configuration not stated), for which the GI50 with Malme-3M is 52.4 µM (inactive); in the test on NCI-H460, 44.1 µM (inactive); in the test on OVCAR-3 it was 27.5 µM (inactive); in the test on SF-268 it was 28.9 µM (inactive); in the test on COLO 205 it was 49.9 µM (inactive); with HOP-92, 28 µM (inactive). For the same molecule, the GI50 was 20 µM (inactive) in the test on K562; 30.3 µM (inactive) in the test with UO-31; 29.1 µM (inactive) with NCI-H23; > 100 µM (inactive) with OVCAR-5; 40.7 µM (inactive) in the test with M14; 40.2 µM (inactive) with ACHN. The GI50 with HL-60 was 21.8 µM (inactive); with SF-295, 37.5 µM (inactive); in the test with Hs-578T, 45.5 µM (inactive); in the test on SNB-75 it was 29.9 µM (inactive); in the test on MDA-MB-231 it was 27.2 µM (inactive); in the test on HCC 2998, 55.2 µM (inactive). Further, in the test on EKVX, the GI50 is 42.1 µM (inactive).
`CC1(C)OCC(C2CCC3(C)C4=CCC5C(C)(C)C(O)CCC5(C)C4CCC23C)CC(O)C1O` (configuration not stated): the GI50 is 15.6 µM (inactive) in the test on Malme-3M; 17 µM (inactive) in the test with NCI-H460; 14.6 µM (inactive) in the test on OVCAR-3; 18.3 µM (inactive) in the test on SF-268; 22.5 µM (inactive) with COLO 205; 16.2 µM (inactive) with HOP-92. In addition, the GI50 was 4.22 µM (inactive) with K562; 16.7 µM (inactive) in the test on UO-31; 17.8 µM (inactive) with NCI-H23; 19.1 µM (inactive) in the test with OVCAR-5; 16.9 µM (inactive) in the test on M14; 20.2 µM (inactive) in the test with ACHN. Also, the GI50 is 12.3 µM (inactive) with HL-60; 16.9 µM (inactive) with SF-295; 19.9 µM (inactive) with Hs-578T; 15.1 µM (inactive) in the test on SNB-75; 18.1 µM (inactive) in the test on MDA-MB-231; 15.5 µM (inactive) in the test with HCC 2998. Besides, the GI50 in the test with EKVX is 14.6 µM (inactive).
For the molecule `[O-][S+](Nc1ccccc1)c1cccc(Cl)c1` (configuration not stated), the GI50 in the test on Malme-3M is > 100 µM (inactive); in the test on NCI-H460, 42.5 µM (inactive); in the test on OVCAR-3, > 100 µM (inactive); in the test on SF-268, 44.1 µM (inactive); in the test on COLO 205, > 100 µM (inactive); with K562 it was 37.3 µM (inactive). Moreover, the GI50 was 60.4 µM (inactive) in the test on UO-31; 42.7 µM (inactive) in the test with NCI-H23; > 100 µM (inactive) with OVCAR-5; > 100 µM (inactive) in the test on M14; 25.5 µM (inactive) with ACHN; 48.6 µM (inactive) in the test with HL-60. Also, the GI50 in the test on SF-295 was 65.3 µM (inactive); in the test with SR, 25.5 µM (inactive); in the test with Hs-578T it was 86.3 µM (inactive); in the test with SNB-75, 76.6 µM (inactive); in the test with MDA-MB-231 it was 66.1 µM (inactive); with HCC 2998 it was 11.3 µM (inactive). In addition, the GI50 with EKVX is 27 µM (inactive).
As for `Nc1nc(Nc2cc(F)c(Cl)c(F)c2)cc(=O)[nH]1`, the GI50 is > 100 µM (inactive) in the test with Malme-3M; > 100 µM (inactive) in the test on NCI-H460; > 100 µM (inactive) in the test with OVCAR-3; 74.5 µM (inactive) with SF-268; > 100 µM (inactive) in the test on COLO 205; 77.3 µM (inactive) in the test on HOP-92. In addition, the GI50 was 95.9 µM (inactive) in the test on NCI-H23; > 100 µM (inactive) in the test on OVCAR-5; 41.5 µM (inactive) in the test on M14; 84.7 µM (inactive) in the test on ACHN; 44.3 µM (inactive) with HL-60; 44.9 µM (inactive) in the test with SF-295. The GI50 in the test with Hs-578T was 18.1 µM (inactive); with SNB-75, 30.7 µM (inactive); in the test on MDA-MB-231 it was 68.2 µM (inactive); in the test with HCC 2998, 15.9 µM (inactive); in the test on EKVX it was 61.1 µM (inactive).
`O=C1c2scc(-c3ccccc3)c2-n2cccc21`: the GI50 is 16.4 µM (inactive) in the test with Malme-3M; 31.1 µM (inactive) with NCI-H460; 16.3 µM (inactive) in the test on OVCAR-3; 14.3 µM (inactive) with SF-268; 17.8 µM (inactive) with COLO 205; 22.5 µM (inactive) in the test on UO-31. For the same molecule, the GI50 with OVCAR-5 was 21 µM (inactive); in the test with M14, 18 µM (inactive); in the test on ACHN, > 100 µM (inactive); in the test with SF-295 it was 18.1 µM (inactive); in the test on SR, 13 µM (inactive); in the test with Hs-578T, 4.59 µM (inactive). Further, the GI50 is 3.46 µM (inactive) in the test with SNB-75, 14.8 µM (inactive) with MDA-MB-231, 20.4 µM (inactive) with HCC 2998 and 4.89 µM (inactive) in the test with EKVX.
Regarding `O=C(CCc1cc(O)cc(O)c1)NCCc1ccc(O)c(O)c1`, the GI50 with NCI-H460 is > 100 µM (inactive); with OVCAR-3 it was > 100 µM (inactive); in the test on SF-268, > 100 µM (inactive); with COLO 205, > 100 µM (inactive); in the test on HOP-92, > 100 µM (inactive); in the test with K562 it was > 10 µM (inactive). In addition, the GI50 in the test with UO-31, with NCI-H23, with OVCAR-5, in the test with M14, in the test with ACHN and in the test on SF-295 was > 100 µM (inactive) each time. The GI50 in the test on SR, with Hs-578T, with SNB-75, in the test with MDA-MB-231, in the test with HCC 2998 and in the test on EKVX was > 100 µM (inactive) in each case.
For `Cc1cc2nc3c(C#N)c4c(c(Nc5ccc(F)cc5)n3c2cc1C)CCC4`, the GI50 with Malme-3M is 52.2 µM (inactive); in the test on NCI-H460 it was > 100 µM (inactive); in the test on OVCAR-3, > 100 µM (inactive); in the test on SF-268, > 100 µM (inactive); with COLO 205 it was > 100 µM (inactive); with K562, > 100 µM (inactive). Moreover, the GI50 in the test on NCI-H23, with OVCAR-5, in the test with M14, in the test with ACHN, with HL-60 and in the test with SF-295 was > 100 µM (inactive) each time. For the same molecule, the GI50 in the test on SR is > 100 µM (inactive); in the test with Hs-578T, 70.5 µM (inactive); in the test with SNB-75 it was > 100 µM (inactive); in the test on MDA-MB-231, > 100 µM (inactive); in the test on EKVX, > 100 µM (inactive).
For the molecule `Nc1nc(Nc2ccc(Cl)cc2)sc1C(=O)c1cc2ccccc2oc1=O`, the GI50 in the test on Malme-3M is 19.1 µM (inactive); in the test with NCI-H460, 31 µM (inactive); in the test on OVCAR-3, 4.84 µM (inactive); in the test with SF-268, 18.3 µM (inactive); in the test with COLO 205, 59.6 µM (inactive); in the test with HOP-92 it was 53.2 µM (inactive). Besides, the GI50 in the test on K562 was 33.8 µM (inactive); in the test on UO-31, > 100 µM (inactive); in the test on NCI-H23, 2.93 µM (inactive); in the test with OVCAR-5, > 100 µM (inactive); with M14, 68.9 µM (inactive); with ACHN, > 100 µM (inactive). Besides, the GI50 in the test with HL-60 was 33 µM (inactive); in the test with Hs-578T, 27.2 µM (inactive); with SNB-75, 7.55 µM (inactive); with MDA-MB-231, 37.8 µM (inactive); in the test on HCC 2998, 41.9 µM (inactive).

The record behind these values is ChEMBL document CHEMBL1201862, “PubChem BioAssay data set” (2004).
